In patent publication EP2719280A1, “Use of N-phenylethylpyrazole carboxamide derivatives or salts thereof for resistance management of phytopathogenic fungi” (priority 2012, dated 2014):

Columns and labels:
[1] = tested on: Corynespora cassiicola (CORYCA); assay: In vitro microtiter plate assay, mycelial growth determined photometrically at 620nm; format: cell-based; settings: 400 spores&mycelia / well; for after 3 days EC50 [ppm]: 3 days after inoculation; for after 5 days EC50 [ppm]: 5 days after inoculation; for after 7 days EC50 [ppm]: 7 days after inoculation
Protocol: (§1) In Vitro-activity against various strains of Corynespora cassiicola and Botrytis cinerea resistant to SDHIs
Pathogen: Corynespora cassiicola (CORYCA) originating from cucurbits in Florida (US) • 1. sensitive strain (S011/12) • 2. resistant strain S1 • 3. resistant strain S2
Spores and mycelia of isolates of Corynespora cassiicola used in the microtiter plate assays were received from four weeks old cultures grown on PDA at 20 °C under black light. Spores and mycelia in steril water were used to inoculate the growth medium with 400 spores/mycelia per well. In the microtiter plate assay potato dextrose broth (PDB) was used as growth medium containing 25 mg/L Enrofloxacin. All isolates were tested with the following concentrations of boscalid and compound (1-1): 0 (control) 0.0064, 0.032, 0.16, 0.8, 4, 20 and 100 ppm. 96-well microplates were prepared in the following way: at first, 10 µl methanol (80 %) containing the amount of active ingredient required per concentration, was added to the cavities. After evaporation of the solvent and one day prior to inoculation, 140 ul growth medium was added to each well and the plate was stirred for at least two hours on a shaker. Then, 60 ul of the spore suspension, prepared as described above, were given into each cavity. The plates were incubated at 300 rpm on a shaker for 7 days at 24°C. Mycelia growth was determined photometrically at 620nm, three, five and seven days after inoculation. EC50 values were calculated according to the extinction values.

[2] = tested on: Botrytis cinerea (BOTRCI); assay: as above; format: cell-based; settings: succinate medium; for after 4 days EC50 [ppm]: 4 days after inoculation; for after 6 days EC50 [ppm]: 6 days after inoculation
Protocol: as §1
Pathogen: Botrytis cinerea (BOTRCI) sampled in European vineyards • 1. sensitive strain B047 • 2. resistant strain B 1 • 3. resistant strain B2 • 4. resistant strain B3 • 5. resistant strain B4 • 6. resistant strain B5 • 7. resistant strain B6
Conidia of isolates of Botrytis cinerea included in the microtiter plate assay were received from cultures grown at 20°C under black light for eight days. Conidia in steril water were used to inoculate the growth medium with 20.000 spores/well. Liquid succinate medium + 40 mg/L Enrofloxacin were used as growth medium. All isolates were tested with the following concentrations of boscalid and compound (1-1): 0 (control) 0.00192, 0.0096, 0.048, 0.24, 1.2, 6 and 30 ppm. 96-well microplates were prepared in the following way: at first, 10 µl methanol (80 %) containing the amount of active ingredient required per concentration, was added to the cavities. After evaporation of the solvent and one day prior to inoculation, 100 ul growth medium was added to each well and the plate was stirred for at least two hours on a shaker. Then, 100 ul of the spore suspension, prepared as described above, were given into each cavity. The plates were incubated at 300 rpm on a shaker for 6 days at 20°C. Mycelia growth was determined photometrically at 620nm, four and six days after inoculation. EC50 values were calculated according to the extinction values.

[3] = tested on: Alternaria alternata SDH-mutants; settings: boscalid-resistant isolates carrying SDH- mutations; in vitro; cited from earlier work

Compound | after 3 days EC50 [ppm] ([1]; isolate S011/12 (sensitive)) | after 5 days EC50 [ppm] ([1]; isolate S011/12 (sensitive)) | after 7 days EC50 [ppm] ([1]; isolate S011/12 (sensitive)) | after 3 days EC50 [ppm] ([1]; resistant strain S1) | after 5 days EC50 [ppm] ([1]; resistant strain S1) | after 7 days EC50 [ppm] ([1]; resistant strain S1) | after 3 days EC50 [ppm] ([1]; resistant strain S2) | after 5 days EC50 [ppm] ([1]; resistant strain S2) | after 7 days EC50 [ppm] ([1]; resistant strain S2) | after 4 days EC50 [ppm] ([2]; resistant strain B1) | after 6 days EC50 [ppm] ([2]; resistant strain B1) | after 4 days EC50 [ppm] ([2]; resistant strain B2) | after 6 days EC50 [ppm] ([2]; resistant strain B2) | after 4 days EC50 [ppm] ([2]; resistant strain B3) | after 6 days EC50 [ppm] ([2]; resistant strain B3) | after 4 days EC50 [ppm] ([2]; resistant strain B4) | after 6 days EC50 [ppm] ([2]; resistant strain B4) | after 4 days EC50 [ppm] ([2]; resistant strain B5) | after 6 days EC50 [ppm] ([2]; resistant strain B5) | after 4 days EC50 [ppm] ([2]; resistant strain B6) | other results
COC(c1ccc(Cl)cc1Cl)C(C)NC(=O)c1cn(C)nc1C(F)F (stereo not drawn) [Compound (1-1), 3-difluoromethyl-1-methyl-1H-pyrazole-4-carboxylic acid [2-(2,4-dichlorophenyl)-2-methoxy-1-methyl-ethyl]-amide] | 0,106 ppm | 0,368 ppm | 0,341 ppm | 1,204 ppm | 1,971 ppm | 1,635 ppm | 2,583 ppm | 7,653 ppm | 10,162 ppm | 4,449 ppm | 6,467 ppm | 2,759 ppm | 3,073 ppm | 1,762 ppm | 1,798 ppm | 2,166 ppm | 1,905 ppm | 14,663 ppm | 18,965 ppm | 0,875 ppm | after 6 days EC50 [ppm] ([2]; resistant strain B6): 1,390 ppm; after 4 days EC50 [ppm] ([2]; sensitive strain B047): 0,288 ppm; after 6 days EC50 [ppm] ([2]; sensitive strain B047): 0,290 ppm
O=C(NCCc1ncc(C(F)(F)F)cc1Cl)c1ccccc1C(F)(F)F [fluopyram] | – | – | – | – | – | – | – | – | – | – | – | – | – | – | – | – | – | – | – | – | mycelial growth [3]: strongly inhibited
CC(C)CC(C)c1sccc1NC(=O)c1cn(C)nc1C(F)(F)F (stereo not drawn) [penthiopyrad] | – | – | – | – | – | – | – | – | – | – | – | – | – | – | – | – | – | – | – | – | mycelial growth [3]: not affected
O=C(Nc1ccccc1-c1ccc(Cl)cc1)c1cccnc1Cl [Boscalid] | 0,519 ppm | 1,387 ppm | 1,225 ppm | >100 ppm | >100 ppm | >100 ppm | >100 ppm | >100 ppm | >100 ppm | >30 ppm | >30 ppm | >30 ppm | >30 ppm | >30 ppm | >30 ppm | >30 ppm | >30 ppm | >30 ppm | >30 ppm | >30 ppm | after 6 days EC50 [ppm] ([2]; resistant strain B6): >30 ppm; after 4 days EC50 [ppm] ([2]; sensitive strain B047): 0,286 ppm; after 6 days EC50 [ppm] ([2]; sensitive strain B047): 0,317 ppm
